Source: US7423048B2, “Compounds for treating fundic disaccomodation” (Janssen Pharmaceutica, N.V., priority 2000, dated 2008)
Marks after values point to notes of the source that are not given here.

Tested on: fundus of the stomach (gastric tone) in conscious dogs
Experiment: Gastric tone measured by an electronic barostat in conscious dogs
Format: in vivo, beagle dogs
Conditions: 1 hour observation period, constant pressure 6 mmHg
Text: C. Pharmacological Examples C.1 Gastric Tone Measured by an Electronic Barostat in Conscious Dogs
Gastric tone cannot be measured by manometric methods. Therefore an electronic barostat was used. This allows the study of the physiological pattern and regulation of gastric tone in conscious dogs and the influence of test-compounds on this tone.
The barostat consists of an air injection system which is connected by a double-lumen 14-French polyvinyl tube to an ultrathin flaccid polyethylene bag (maximal volume: ±700 ml). Variations in gastric tone were measured by recording changes in the volume of air within an intragastric bag, maintained at a constant pressure. The barostat maintains a constant pressure (preselected) within a flaccid air-filled bag introduced into the stomach, changing the volume of air within the bag by an electronic feedback system.
Thus the barostat measures gastric motor activity (contraction or relaxation) as changes in intragastric volume (decrease or increase resp.) at a constant intragastric pressure. The barostat consists of a strain gauge linked by an electronic relay to an air injection-aspiration system. Both the strain gauge and the injection system are connected by means of double-lumen polyvinyl tube to an ultrathin polyethylene bag. A dial in the barostat allows selection of the pressure level to be maintained within the intragastric bag.
Female beagle dogs, weighing 7-17 kg, were trained to stand quietly in Pavlov frames. They were implanted with a gastric cannula under general anaesthesia and aseptic precautions. After a median laparotomy, an incision was made through the gastric wall in longitudinal direction between the greater and the lesser curve, 2 cm above the nerves of Latarjet. The cannula was secured to the gastric wall by means of a double purse string suture and brought out via a stub wound at the left quadrant of the hypochondrium. Dogs were allowed a recovery period of two weeks.
At the beginning of the experiment, the cannula was opened in order to remove any gastric juice or food remnants. If necessary, the stomach was cleansed with 40 to 50 ml lukewarm water. The ultrathin bag of the barostat was positioned into the fundus of the stomach through the gastric cannula. In order to ensure easy unfolding of the intragastric bag during the experiment, a volume of 300-400 ml was injected twice into the bag.
When during a stabilisation period of maximum 90 minutes, the gastric volume is stable during 15 minutes at a constant pressure of 6 mmHg (about 0.81 kPa), the test compound was administered subcutaneously (S.C.), or intraduodenally (I.D.). Test compounds were screened, i.e. changes in gastric volume were measured, usually at 0.63 mg/kg. […] Table C-1 summarizes the mean maximal change in volume on relaxation of the fundus, during the 1 hour observation period after S.C. or I.D. administration of the test compound (0.63 mg/kg).

[1] = S.C. administration, 0.63 mg/kg

| SMILES | Maximum change in volume (mean maximal change in volume on relaxation of the fundus) [1] | further results |
| --- | --- | --- |
| O=C(O)C(=O)O.O=C1NCCCN1CCCNCC1CCc2cccnc2O1 (racemic) [Compound 9, (±)-1-[3-[[(3,4-dihydro-2H-pyrano[2,3-b]pyridin-2-yl)methyl]amino]propyl]tetrahydro-2(1H)-pyrimidinone ethanedioate (1:1)] | 78 mL |  |
| CC1(C)CNC(=O)N(CCCNCC2Oc3cccnc3O2)C1 (racemic) [Compound 10, (±)-1-[3-[(1,3-dioxolo[4,5-b]pyridin-2-ylmethyl)amino]-propyl]tetrahydro-5,5-dimethyl-2(1H)-pyrimidinone] | 31 mL |  |
| O=C1NCCCN1CCCNCC1COc2cccnc2O1 (racemic) [Compound 1, (±)-1-[3-[[(2,3-dihydro-1,4-dioxino[2,3-b]pyridin-3-yl)methyl]amino]propyl]tetrahydro-2(1H)pyrimidinone] | 156 mL |  |
| O=C1CN(CC(O)CNCC2COc3cccnc3O2)C(=O)N1 (centres unmarked) [Compound 13, 1-[3-[[(2,3-dihydro-1,4-dioxino[2,3-b]pyridin-3-yl)methyl]amino]-2-hydroxypropyl]-2,4-imidiazolidinedione] |  | Maximum change in volume (mean maximal change in volume on relaxation of the fundus) (I.D. administration, 0.63 mg/kg): 118 mL |
| O=C1CCN(CCCNC[C@H]2COc3cccnc3O2)C(=O)N1 [Compound 25, (S)-1-[3-[[(2,3-dihydro[1,4]dioxino[2,3-b]pyridin-3-yl)methyl]amino]-propyl]dihydro-2,4(1H,3H)-pyrimidinedione] |  | Maximum change in volume (mean maximal change in volume on relaxation of the fundus) (I.D. administration, 0.04 mg/kg (footnote *)): 226* ml |
